Results: patent US5211657A, “Laminin a chain deduced amino acid sequence, expression vectors and active synthetic peptides” (The United States Government as represented by the …, priority 1988, dated 1993)

Columns and labels:
[1] = test system: cells in culture and tumor cells in vivo; assay: Various biological activities with cells in culture and tumor cells in vivo (comparison of derivatives); settings: all presently found activities
various cells = assay: Cell attachment to peptide coated on plastic; type: cell-based
Method: (§1) A further aspect of the invention provides synthetic peptides from the deduced amino acid sequence of the cDNA sequence for the A chain. These synthetic peptides can be synthesized by any suitable method such as one previously used by our group (Graf et al (1987) Cell 48:989). A variety of synthetic peptides are tested for biological activity such as promoting cell adhesion, migration, growth and preventing invasion of tumor cells (see locations and sequences of the active peptides in FIG. 14 and Table III). […] A: increasing amounts of peptide were coated onto a 24 well dish in DMEM for 2 hours. The unbound peptide was removed and the wells were incubated with DMEM containing 3% BSA before the addition of cells. B and C: Morphological appearance of cells attached on peptide and laminin substrates. In the absence of peptides or laminin, few cells were attached. Table III is shown below.
(§2) This peptide is active with various cells and its activity can be equal to that of laminin itself in terms of the total number of cells that can attach to surfaces coated with the peptide. […] Table IV is shown below.

EGF-like activity = settings: personal communication; cited from earlier work
[2] = test system: neural cell lines (PC-12, NG108-15) and primary cultures of neural cells; settings: background statement; cited from earlier work
[3] = test system: HT-1080 fibrosarcoma cells; settings: background statement; cited from earlier work
B16-F10 and PC12 cells = assay: Cell growth; type: cell-based
[4] = test system: neural cell lines (PC-12, NG108-15) and primary cultures of neural cells; assay: Neurite outgrowth / process formation on coated peptide; type: cell-based; settings: peptide coated on plastic dish
Method: In fact, laminin promotes regeneration faster and over greater distances than any other factor described to date. […] It is active in a dose-dependent manner and is active both with neural cell lines (PC-12 FIGS. 17A and B and NG108-15) and with primary cultures of neural cells both from the peripheral and the central nervous system. The processes formed appear identical to those observed with intact laminin (see FIG. 17A).
The assay was carried out in a similar manner to the cell adhesion assay. 17A: Morphology after 4 hours. 17B: Dose response curve showing number of processes formed. Cells were directly counted from at least 10 microscopic fields.

[5] = test system: laminin-mediated cell adhesion; assay: Blocking of laminin-mediated cell attachment by soluble peptide; type: cell-based; settings: laminin coated dish; peptide added with cells; one and a half hours
Method: Laminin was coated on the dish as described above, then peptide togehter with cells were added to the dishes and cell adhesion after one and a half hours was determined.

HT1080 (fibrosarcoma) = assay: Cell attachment and spreading on coated dish (Table IV); type: cell-based; settings: HT-1080
Method: as §1, §2

B16F10 (melanoma) = assay: as above; type: cell-based
Method: as §1, §2

[6] = test system: HT-1080 fibrosarcoma cells; assay: Collagenase production (collagen IV degrading enzymes in conditioned medium); type: cell-based; settings: HT-1080 cells treated for 6 hours
Method: This enzyme is thought to be important in cancer where its production is correlated with the invasive and metastatic activity of malignant tumor cells. In fact, degradation of basement membranes by collagenase IV is a necessary step in the metastatic process. […] The cells were treated for 6 hours with various amounts of the peptide and then the conditional medium was assayed for the production of collagen IV degrading enzymes. The effect is dose-dependent and is not reproduced by any other peptide tested to date. The importance of localizing this activity to peptide PA22-2 is that it will now be possible to more precisely define the molecular events involved in the metastatic process. Competitive inhibitors of this activity can be readily designed by modification of the composition of the active peptide i.e. Dasmano acids, cyclic forms etc. There may also be situations where the production of the enzyme could be advantageous such as in speeding the migration of leukocytes to sites of infection.

cell migration = assay: Cell migration; type: cell-based
B16F10 Melonoma Cells = assay: Lung tumor formation after tail vein injection of B16F10 melanoma cells with peptide; type: in vivo, mice; settings: for Number of Tumors/animal: lung surface tumors after 3 weeks, no peptide: 26
Excerpt: It is well known that tumor cells must attach degrade, and migrate through basement membranes in order to spread to distant sites. Laminin is known to increase the metastic phenotype of tumor cells and the number of tumors formed in mice. Using a line of B16 melanoma cells which specifically colonize the lung when injected into mouse tail vein, we have studied the effect of peptide PA22-2 on the formation of lung tumors.
In these studies, various amounts of peptide PA22-2 are mixed with the B16F10 melanoma cells (5×10^4) and injected into mice via the tail vein. Eight mice are injected for each concentration of test peptide. After 2-3 weeks, the mice are sacrificed and the number of […] colonies on the lung surface are counted.
10^5 melanoma cells in a final volume of 0.2 ml of Dulbecco's
modification of Eagle's medium (DMEM) containing the indicated amount and
type of peptide were injected in the tail vein. Eight mice were in each
test group. After 3 weeks, the mice were sacrificed, lungs were removed.
The number of tumors on the surface of the lungs was determined by using
Each group contained 8 mice which were injected with […] B16F10 Melanoma cells via the tail vein in a final volume of 0.2 DMEM containing the designated amount of peptide. After three weeks, the animals were sacrificed and the number of colonies on the surface of the lungs was determined.

[7] = test system: Human umbilical vein endothelial cells; assay: Endothelial cell tube formation on reconstituted basement membrane; type: cell-based
Method: Human umbilical vein endothelial cells when coated on a reconstituted basement membrane substrate rapidly (by 12 hours) organize into capillary-like structures (see FIG. 18A). […] It may have a potential clinical use in blocking blood vessel formation as for example, during the vascularization of tumors and in diabetic retinopathy (ex diabetic retinopathy or Kaposi sarcoma). […] 18A: Morphology of cells. Cells were plated on a reconstituted basement membrane substrate and after 2 and 18 hours it is apparent that the cells line up into capillary-like structures. […] 18B: Adhesion to peptides. 18C: peptide inhibition of tube formation.

[8] = test system: endothelial cell binding to laminin; assay: Competition with intact laminin for endothelial cell binding; type: cell-based; settings: endothelial cells
Excerpt: Many of the same cells which recognize peptide PA22-2 and YIGSR also recognize and bind to PA21 and PA26 but the degree of binding is quite different. […] Since the sequence of PA36 is unique to laminin, the response of endothelial cells to PA36 is likely to be specific to the peptide.

HUVEC (endothelia cell) = assay: Cell attachment and spreading on coated dish (Table IV); type: cell-based, Human; settings: endothelial cells
Method: as §1, §2

XRKQAASIKVAVS [PA22-3]
Activity relative to PA22-2 [1]: almost equally active

XGQIKKSPAVKVT [pA31-2]
Cell adhesion / attachment to coated peptide (various cells): has some cell attachment activity

XGQIKKSPAVKVTHFKG [pA31-1]
Cell adhesion / attachment to coated peptide (various cells): active for cell attachment

Laminin: large glycoprotein localized to basement membranes, composed of three chains A, B1 and B2; prepared from EHS tumor
EGF-like activity (EGF-like activity): exert EGF-like growth factor activity
Neurite outgrowth promoting activity (background) [2]: very active in promoting neurite outgrowth
Collagenase production / release (background) [3]: induces the production of collagenase IV

XIKVAVSADR [PA22-4]
Activity relative to PA22-2 [1]: almost equally active

XSRARQAASIKVAVSADR [PA22-2]
Cell growth (B16-F10 and PC12 cells): stimulate growth
Cell adhesion / attachment to coated peptide (various cells): promotes the adhesion of various epithelial cells in a rapid dose-dependent manner
Neurite outgrowth promoting activity [4]: mimics the neurite promoting activity of laminin
Blocking of laminin-mediated cell adhesion [5]: can complete (i.e. block) laminin-mediated cell adhesion
Spreading on substrates coated with the peptide (HT1080 (fibrosarcoma)): spreading is not observed
Spreading on substrates coated with the peptide (B16F10 (melanoma)): spreading is observed
Production of collagenase [6]: increase in the production of collagenase to levels comparable to those observed with intact laminin
Cell migration (cell migration): active
Number of Tumors/animal (B16F10 Melonoma Cells; 0.5 mg peptide injected with melanoma cells in tail vein): 44
Number of Tumors/animal (B16F10 Melonoma Cells; 1 mg peptide injected with melanoma cells in tail vein): 53
Increase in the number of lung tumors (B16F10 Melonoma Cells; 1 mg/mouse): two-fold increase
Adhesion of HUVEC [7]: does not alter the adhesion of these cells
Formation of capillary-like structures (tube formation) ([7]; HUVEC on reconstituted basement membrane): block the formation of capillary-like structures
Heparin binding (Heparin binding): promote activity to bind heparin

CSKCQAGTFALR [PA36]
Competition with intact laminin for endothelial cell binding to laminin [8]: effectively competes with intact laminin for endothelial cell binding to laminin
Endothelial cell adhesion to peptide (HUVEC (endothelia cell)): specifically active with endothelial cells for cell adhesion

XFALRGDNPQG [PA26]
Cell adhesion / attachment to coated peptide (various cells): support the attachment of many cells
